From PubChem BioAssay AID588523 (Johns Hopkins Ion Channel Center, 2011)
pIC50: −log10 of the molar value. Calls of active or inactive are those of the source.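 How the source made its calls: active means IC50 below 100 µM from duplicate concentration-response curves; inactive means IC50 above 100 µM.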

The molecules below were run against Regulator of G-protein signaling 4 (Rattus norvegicus) (UniProt P49799) (assay: RGS4 binding to activated Galpha-o blockers – biochemical, rat RGS4, AlF4-dependent, flow cytometry bead assay, dose response (AID 588523)). Conditions: FCPIA, bead fluorescence.
Regulator of G-protein signaling 4 (Rattus norvegicus), sequence (P49799 whole entry, looked up): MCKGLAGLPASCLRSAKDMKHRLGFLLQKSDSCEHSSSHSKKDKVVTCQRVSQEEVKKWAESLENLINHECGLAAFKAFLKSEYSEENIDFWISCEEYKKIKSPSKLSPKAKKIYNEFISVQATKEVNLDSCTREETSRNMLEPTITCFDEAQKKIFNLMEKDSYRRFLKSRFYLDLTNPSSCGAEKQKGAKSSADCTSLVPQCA
With `CC(C)OP(=O)(OC(C)C)/C(C=O)=N\Nc1ccc([N+](=O)[O-])cc1` the IC50 was > 110 µM (inactive). For `CN1C(=O)S/C(=C\c2ccccc2OCc2ccc(C(=O)O)cc2)C1=O`, the IC50 was > 110 µM (inactive). For `Cc1cccc(N2C(=O)/C(=C/c3ccc(C(=O)O)cc3)c3ccccc3C2=O)c1`, the IC50 was > 110 µM (inactive). In the case of `CCOCCCNC(=O)/C(C#N)=C\c1ccc([N+](=O)[O-])o1`, the IC50 was > 110 µM (inactive). In the case of `CN1C/C(=C/c2ccncc2)C(=O)/C(=C/c2ccncc2)C1`, the pIC50 was 5.27. With `Cc1nc2c(=O)n(C)c(=O)n(C)c2nc1Cl` the pIC50 was 4.10. `O=C(N/N=C/c1cc([N+](=O)[O-])ccc1O)NC12CC3CC(CC(C3)C1)C2` was tested, and the IC50 was > 110 µM (inactive). For `O=C/C=C/c1c(-c2ccccc2)cc2oc3ccccc3cc1-2`, the IC50 was > 110 µM (inactive). `Cc1ccc(/C=C/C(=O)N2CC(C)CC(C)C2)o1` (stereo not drawn) gave a pIC50 of 4.13. In the case of `COc1cccc(/C=C/C(=O)c2c(O)cc(C)oc2=O)c1O`, the IC50 was > 110 µM (inactive). `O=C1/C(=C\c2ccc(Cl)cc2Cl)N2CCC1CC2` was tested, and the IC50 was > 110 µM (inactive). In the case of `CC1=NOC(=O)/C1=C/c1ccc(O)cc1`, the IC50 was > 110 µM (inactive). In the case of `CC(C)(C)c1ccc(Cn2nnc3c(=O)[nH]c(C4CCN(C(=O)Cc5cccs5)CC4)nc32)cc1`, the IC50 was > 110 µM (inactive). `Cc1csc(NC(=O)COCC(=O)O)c1-c1nc2ccccc2s1` was tested, and the IC50 was > 110 µM (inactive). For `Cc1ccc(CNC(=O)c2cn(C3CCCCC3)c(=O)c3c2c2ccccc2n3C)o1`, the IC50 was > 110 µM (inactive). `O=C(O)c1ccc(/C=C2\COc3ccccc3C2=O)cc1` was tested, and the IC50 was > 110 µM (inactive). With `CN(C)C(=O)COc1ccc(C(=O)/C=C/c2cccnc2)cc1` the IC50 was > 110 µM (inactive). `COc1ccc2cc(C3C(C#N)=C(N)OC(C)=C3C(C)=O)c(Cl)nc2c1` (stereo not drawn) was tested, and the IC50 was > 110 µM (inactive). `COc1cc2c(cc1O)C(SC)=NC(C)(C)C2` was tested, and the IC50 was > 110 µM (inactive). In the case of `NC(=O)N/N=C/c1c(Sc2nnnn2-c2ccccc2)nc2ccccn2c1=O`, the IC50 was > 110 µM (inactive). With `CN(C)c1oc(-c2ccccc2[N+](=O)[O-])nc1C#N` the IC50 was > 110 µM (inactive). `O=C1/C(=C/c2ccncc2)CCC/C1=C\c1ccncc1` showed a pIC50 of 4.87. For `O=C1C=C(NC2=CC3OC(c4ccccc4)OCC3OC2=O)CCC1` (stereo not drawn), the IC50 was > 110 µM (inactive). With `Cc1cc2nc(CS)[nH]c2cc1C` the pIC50 was 4.63. With `Cc1c(NC(=O)c2coc(=O)c(Br)c2)c(=O)n(-c2ccccc2)n1C` the IC50 was > 110 µM (inactive). For `O=C(O)c1ccc2c(c1)C(=O)N(c1cccc(C(=O)/C=C/c3ccccc3)c1)C2=O`, the IC50 was > 110 µM (inactive). `O=C(O)c1ccc(/C=C/C(=O)c2ccc3c(c2)OCCCO3)cc1` was tested, and the IC50 was > 110 µM (inactive). With `O=C1/C(=C\c2ccc(Cl)c(Cl)c2)N2CCC1CC2` the IC50 was > 110 µM (inactive). Work on `O=C1N=c2ccccc2=C1c1c(O)n(-c2cccc(F)c2)[nH]c1=O` yielded a pIC50 of 4.99. In the case of `O=[N+]([O-])c1ccc(O)c(/C=N/NC(=S)Nc2ccc(Cl)cc2Cl)c1`, the IC50 was > 110 µM (inactive). For `COC(=O)CSc1[nH]c2ccccc2c1[N+](=O)[O-]`, the IC50 was > 110 µM (inactive). In the case of `COc1ccc(NC(=O)/C(C#N)=C\c2ccc(Sc3nncn3C)c([N+](=O)[O-])c2)cc1`, the IC50 was > 110 µM (inactive). `CCOC(=O)/C=C/C(=O)OCC(=O)N1CCN(C(=O)c2ccco2)CC1` showed a pIC50 of 4.13. With `Cc1cc(-c2n[nH]c(=S)n2/N=C/C(Br)=C/c2ccccc2)n[nH]1` the pIC50 was 4.58. With `N[C@@H](Cc1cc(Br)c(O)c(Br)c1)C(=O)O` the IC50 was > 110 µM (inactive). `Oc1c(Cl)cc(Cl)c2c1NCCC2` was tested, and the IC50 was > 110 µM (inactive). `COc1ccc(-c2csc(NC3OC(=O)c4c3ccc(OC)c4OC)n2)cc1OC` (stereo not drawn) was tested, and the IC50 was > 110 µM (inactive). `N#C/C(=C/c1ccc(Cl)c([N+](=O)[O-])c1)c1ccccn1` was tested, and the IC50 was > 110 µM (inactive). Work on `CC1=NN(c2ccc(C(=O)O)cc2)C(=O)/C1=C\c1ccc(OC(=O)c2cccs2)cc1` yielded a pIC50 of 4.36. Molecule `COc1ccc(OC)c(N2C(=O)NC(=O)/C(=C/c3ccc([N+](=O)[O-])s3)C2=O)c1` has a pIC50 of 4.92. In the case of `Cc1ccc(/C=C2\C(=O)NC(=S)N(c3ccc(F)cc3)C2=O)s1`, the pIC50 was 4.66. `CN1CCc2cc(O)cc3c2[C@H]1Cc1ccc(O)c(O)c1-3` gave a pIC50 of 5.12. In the case of `Cn1c(OCc2ccco2)nc2c1c(=O)n(Cc1ccc(Cl)c(Cl)c1)c(=O)n2C`, the IC50 was > 110 µM (inactive). With `Cc1ccccc1OCc1nnc(SCC(=O)Nc2ccc3c(c2)oc2ccccc23)n1C` the IC50 was > 110 µM (inactive). `O=C(/C=C/c1ccc([N+](=O)[O-])cc1)c1ccco1` was tested, and the IC50 was > 110 µM (inactive). With `Cc1ccc(C(C2=C(O)CC(C)(C)CC2=O)C2C(=O)CC(C)(C)CC2=O)o1` (stereo not drawn) the IC50 was > 110 µM (inactive). In the case of `CCOC(=O)C1=C(O)/C(=C\c2cccc(OC)c2)N=C1C`, the IC50 was > 110 µM (inactive). In the case of `CCCN1CCc2cc(O)cc3c2[C@H]1Cc1ccc(O)c(O)c1-3`, the pIC50 was 5.03. For `CN1C(=O)/C(=C\c2ccc(Br)s2)C(=O)NC1=S`, the pIC50 was 4.90. `O=C(CCNc1ccc(F)cc1)c1ccco1` was tested, and the IC50 was > 110 µM (inactive). Molecule `O=C(/C=C/c1ccncc1)c1ccc2c(c1)OCCO2` has a pIC50 of 4.09. `COC(=O)CSc1[nH]c2cc(C)ccc2c1[N+](=O)[O-]` was tested, and the IC50 was > 110 µM (inactive). Molecule `Cc1ccc(C(C2C(=O)CC(C)(C)CC2=O)C2C(=O)CC(C)(C)CC2=O)s1` has a pIC50 of 4.06. In the case of `COc1ccc(NC(=O)/C(Cl)=C(/Cl)S(=O)Cc2ccccc2)cn1` (stereo not drawn), the pIC50 was 5.77. With `CN(C)c1ccc(C(C[N+](=O)[O-])c2c(N)n(C)c(=O)n(C)c2=O)c(F)c1C#N` (stereo not drawn) the IC50 was > 110 µM (inactive). In the case of `COc1ccc(C(C[N+](=O)[O-])c2c(-c3ccccc3)cc3ccccn23)cc1OC` (stereo not drawn), the IC50 was > 110 µM (inactive). `O=C1NC(=S)N(c2ccccc2F)C(=O)/C1=C\c1cccs1` was tested, and the pIC50 was 4.67. With `CCOCCCNC(=O)/C(C#N)=C\c1ccc(Cl)c([N+](=O)[O-])c1` the IC50 was > 110 µM (inactive).
